Data taken from PubChem BioAssay AID2060885 (Molecular Pharmacology Branch, DTP, NCI, 2025).

System: NCI-H23 complex spheroids with HUVEC/MSC, viability
Assay: Anticancer human tumor NCI-H23 cell line growth inhibition [RAS];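 note: spheroids exposed to compound for 7 days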;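 for viability, T/C: 100% = DMSO vehicle control viability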
Conditions: for IC50: curve of first compound; for viability, T/C: stronger effect = lower value
Description: RAS pathway inhibitors in Combinations in Complex Spheroids
A high-throughput screen of multi-cell type tumor spheroids was designed to identify active combinations of RAS pathway inhibitors and targeted small molecules. Complex spheroids include a stromal component modeled by human endothelial cells (HUVEC) and fibroblasts modeled by human mesenchymal stem cells (MSCs). The concentration ranges selected for each drug and investigational agent were based upon clinically achievable concentrations if the clinical Cmax of the agent was known.
Compounds. The drugs and investigational agents: abemaciclib (NSC768073), cobimetinib (NSC768068), divarasib (GDC6063, NSC841802), docetaxel (NSC628503), GDC-1971 (RLY-1971, NSC841576), gemcitabine (NSC613327), inavolisib (NSC800729), ipatasertib (NSC767898), KB-0742 (NSC834161), MRTX-1133 (NSC836407), osimertinib (NSC779217), RMC-4630 (NSC839698), RMC-6236 (NSC851965), RMC-6291 (NSC852671), Ro-3306 (NSC812927), sapanisertib (NSC764658), SN-38 (NSC673596), staurosporine (NSC755774), SY5609 (NSC837396), and tovorafenib (DAY101, NSC766906), were obtained from the National Cancer Institute (NCI) Developmental Therapeutics Program Chemical Repository. The FDA-approved anticancer drug set is available from the NCI Developmental Therapeutics Program. […] The stock solutions were prepared in dimethyl sulfoxide (DMSO, Sigma-Aldrich, St. Louis, MO, cat. D2650) at 800-fold the tested concentration and stored at -70 degrees C prior to their use. All drugs and investigational agents were tested over a range starting from a high concentration at or near the clinical Cmax and decreasing in half-log increments. If the clinical Cmax for an agent had not been determined, the highest concentration tested was 10 microM.
Cell Culture. All cells were maintained in an incubator at 37 degrees C and 5% CO2 with 95% humidity. The PDC lines were cultured according to standard operating procedures established by the NCI PDMR. All PDCs were thawed and cultured in Matrigel-coated flasks prepared with a working solution of 1X Ham's F-12 nutrient mix, without supplementation (Invitrogen, Waltham, MA, cat. 11765054), 100 U/mL penicillin-streptomycin (Invitrogen, cat. 15140122), and 2.5% Matrigel (Corning Inc., Corning, NY, cat. 354248) for the first three passages. The 362531-283-R-J2-PDC and 782815-120-R-J1-PDC lines were cultured in 6C/Colon 1B media, which includes advanced DMEM/F-12 (Thermo Fisher Scientific, cat. 12634028), 10 mM HEPES (Thermo Fisher Scientific, cat. 15630080), 1X GlutaMAX supplement (Thermo Fisher Scientific, cat. 35050061), 0.1 mg/mL primocin (InvivoGen, San Diego, CA, cat. ant-pm-2), 10% defined fetal bovine serum, heat inactivated (HyClone Laboratories Inc., Logan, UT, cat. SH30070.03HI), 50% L-WRN conditioned media (ATCC, cat. CRL-3276), 1.25 mM N-Acetyl-L-cysteine (Sigma-Aldrich, cat. A9165), 10 mM nicotinamide (Sigma-Aldrich, cat. N0636), 1X B-27 supplement (Thermo Fisher Scientific, cat. 17504044), 1X N-2 supplement (Thermo Fisher Scientific, cat. 17502048), 50 ng/mL human EGF (Thermo Fisher Scientific, cat. PHG0311), and 10 microM Y-27632 dihydrochloride (Tocris Bioscience, cat. 1254). The K12877-001-R-J1-PDC line was cultured in 6I media, which includes all 6C/Colon 1B media plus 10 ng/mL human FGF-10 (PeproTech, cat. 100-26), 1 ng/mL human FGF-2 (PeproTech, cat. 100-18B), 1 µM prostaglandin E2 (Tocris Bioscience, cat. 2296), […] hydrocortisone (Sigma-Aldrich, cat. H4001), and […] bovine insulin (Sigma-Aldrich, cat. I6634). The K86415-001-R-J1-PDC line was cultured in 6D media, which includes all 6C/Colon 1B media components minus the L-WRN conditioned media. The 485176-168-R4-J1-PDC was cultured in PANC media, which includes all 6C/Colon 1B media plus 100 ng/mL human FGF-10 (PeproTech, cat. 100-26), 500 nM SB-431542 (Selleckchem, cat. S1067), and 10 nM gastrin (Tocris Bioscience, cat. 3006). […]

## CC(Nc1ccc2c(c1)OCCn1cc(N3C(=O)OCC3C(F)F)nc1-2)C(N)=O (configuration not stated) + C#Cc1c(F)ccc2cc(O)cc(-c3ncc4c(N5CC6CCC(C5)N6)nc(OCC56CCCN5CC(F)C6)nc4c3F)c12
Second compound 0.0316 µM
  IC50: > 10 µM
Second compound 0.1 µM
  IC50: > 10 µM
Second compound 0.316 µM
  IC50: > 10 µM
Second compound 1 µM
  IC50: > 10 µM
Second compound 3.16 µM
  IC50: 0.207 µM
Second compound 10 µM
  IC50: < 0.0316 µM
Second compound 0.0316 µM, first compound 0.0316 µM
  viability, T/C: 96.5%
Second compound 0.0316 µM, first compound 0.1 µM
  viability, T/C: 112%
Second compound 0.0316 µM, first compound 0.316 µM
  viability, T/C: 74.5%
Second compound 0.0316 µM, first compound 1 µM
  viability, T/C: 70.5%
Second compound 0.0316 µM, first compound 3.16 µM
  viability, T/C: 62.9%
Second compound 0.0316 µM, first compound 10 µM
  viability, T/C: 74%
Second compound 0.1 µM, first compound 0.0316 µM
  viability, T/C: 108%
Second compound 0.1 µM, first compound 0.1 µM
  viability, T/C: 119%
Second compound 0.1 µM, first compound 0.316 µM
  viability, T/C: 77.3%
Second compound 0.1 µM, first compound 1 µM
  viability, T/C: 69.3%
Second compound 0.1 µM, first compound 3.16 µM
  viability, T/C: 64.9%
Second compound 0.1 µM, first compound 10 µM
  viability, T/C: 71.2%
Second compound 0.316 µM, first compound 0.0316 µM
  viability, T/C: 107%
Second compound 0.316 µM, first compound 0.1 µM
  viability, T/C: 107%
Second compound 0.316 µM, first compound 0.316 µM
  viability, T/C: 66.2%
Second compound 0.316 µM, first compound 1 µM
  viability, T/C: 66.8%
Second compound 0.316 µM, first compound 3.16 µM
  viability, T/C: 63.7%
Second compound 0.316 µM, first compound 10 µM
  viability, T/C: 60.9%
Second compound 1 µM, first compound 0.0316 µM
  viability, T/C: 98.8%
Second compound 1 µM, first compound 0.1 µM
  viability, T/C: 86.5%
Second compound 1 µM, first compound 0.316 µM
  viability, T/C: 60.8%
Second compound 1 µM, first compound 1 µM
  viability, T/C: 54%
Second compound 1 µM, first compound 3.16 µM
  viability, T/C: 49.5%
Second compound 1 µM, first compound 10 µM
  viability, T/C: 63.8%
Second compound 3.16 µM, first compound 0.0316 µM
  viability, T/C: 61.2%
Second compound 3.16 µM, first compound 0.1 µM
  viability, T/C: 63.6%
Second compound 3.16 µM, first compound 0.316 µM
  viability, T/C: 39.8%
Second compound 3.16 µM, first compound 1 µM
  viability, T/C: 40.4%
Second compound 3.16 µM, first compound 3.16 µM
  viability, T/C: 43.1%
Second compound 3.16 µM, first compound 10 µM
  viability, T/C: 48.1%
Second compound 10 µM, first compound 0.0316 µM
  viability, T/C: 36.6%
Second compound 10 µM, first compound 0.1 µM
  viability, T/C: 38.7%
Second compound 10 µM, first compound 0.316 µM
  viability, T/C: 27.5%
Second compound 10 µM, first compound 1 µM
  viability, T/C: 23.4%
Second compound 10 µM, first compound 3.16 µM
  viability, T/C: 30.8%
Second compound 10 µM, first compound 10 µM
  viability, T/C: 24.2%
